Experiments:
ΔF508-CFTR [1] = biological target: T1, ΔF508-CFTR (Homo sapiens, UniProt P13569, DEL508-508); assay: CFTR gating in excised inside-out patches, NIH/3T3-ΔF508 cells; conditions: ATP without genistein; stated for both wt- and ΔF508-CFTR
Description: (§1) FIGS. 9A and B are recordings of the effects of genistein on CFTR gating in excised inside-out patches from NIH/3T3-CFTR or NIH/3T3-ΔF508 cells. CFTR channels were activated by 10 μM forskolin +20 nM calyculin A before excision into an inside-out configuration. Presence of calyculin A helps to slow channel dephosphorylation. (A): continuous 14.5 minute recording of a patch containing wt-CFTR. Expanded traces are 22 seconds in length. ATP (500 μM) with or without 20 μM genistein was present as indicated. (B): 2 traces of 44 seconds in length of an excised inside-out patch with CFTR-ΔF508.
(§2) Electrophysiology: CFTR channel currents were recorded at room temperature (~22° C.) with a patch-clamp amplifier (EPC-9, Heka Electronic), filtered at 100 Hz with a built-in three-pole Bessel filter, and stored on videotapes. Data were subsequently refiltered at 25 Hz with an eight-pole Bessel filter (Frequency Device, Havervill, Mass.) and captured onto a hard disk at a sampling rate of 50 Hz. […] Patch-clamp electrodes were made from Corning 7052 glass capillaries (Warner Instrument, Hammed, Conn.). The pipette resistance was usually 3-5 M.OMEGA., and the seal resistance was >20 G.OMEGA.. The pipette solution contained (in mM) 140 N-methyl-D-glucamine chloride (NMDG-C1), 2 MgCl2, 5Ca Cl2, and 10 HEPES (pH 7.4 with NMDG). The superfusion solution contained (in mM) 150 […], 2 MgCl2, 1 EGTA, 5 glucose, and 5 HEPES (pH 7.4 with NaOH). In excised inside-out patch experiments, the bath solution contained (in mM) 130 MNDG-Cl, 10 EGTA, 10 HEPES, 20 tetraethylammonium chloride, 8 Tris, and 2 MgCl2 (pH 7.4 with NMDG). Pipette potential was held at 50 mV relative to the bath. Downward deflections represent channel opening.
(§3) Channels were first activated in cell-attached patches with forskolin plus calyculin A, a membrane-permeant phosphatase inhibitor [Suganuma et al., 1991]. Patches were then excised into an inside-out configuration.

wt-CFTR = wt-CFTR (Homo sapiens, UniProt P13569); conditions: ATP without genistein; stated for both wt- and ΔF508-CFTR
Chain of wt-CFTR (P13569 whole entry): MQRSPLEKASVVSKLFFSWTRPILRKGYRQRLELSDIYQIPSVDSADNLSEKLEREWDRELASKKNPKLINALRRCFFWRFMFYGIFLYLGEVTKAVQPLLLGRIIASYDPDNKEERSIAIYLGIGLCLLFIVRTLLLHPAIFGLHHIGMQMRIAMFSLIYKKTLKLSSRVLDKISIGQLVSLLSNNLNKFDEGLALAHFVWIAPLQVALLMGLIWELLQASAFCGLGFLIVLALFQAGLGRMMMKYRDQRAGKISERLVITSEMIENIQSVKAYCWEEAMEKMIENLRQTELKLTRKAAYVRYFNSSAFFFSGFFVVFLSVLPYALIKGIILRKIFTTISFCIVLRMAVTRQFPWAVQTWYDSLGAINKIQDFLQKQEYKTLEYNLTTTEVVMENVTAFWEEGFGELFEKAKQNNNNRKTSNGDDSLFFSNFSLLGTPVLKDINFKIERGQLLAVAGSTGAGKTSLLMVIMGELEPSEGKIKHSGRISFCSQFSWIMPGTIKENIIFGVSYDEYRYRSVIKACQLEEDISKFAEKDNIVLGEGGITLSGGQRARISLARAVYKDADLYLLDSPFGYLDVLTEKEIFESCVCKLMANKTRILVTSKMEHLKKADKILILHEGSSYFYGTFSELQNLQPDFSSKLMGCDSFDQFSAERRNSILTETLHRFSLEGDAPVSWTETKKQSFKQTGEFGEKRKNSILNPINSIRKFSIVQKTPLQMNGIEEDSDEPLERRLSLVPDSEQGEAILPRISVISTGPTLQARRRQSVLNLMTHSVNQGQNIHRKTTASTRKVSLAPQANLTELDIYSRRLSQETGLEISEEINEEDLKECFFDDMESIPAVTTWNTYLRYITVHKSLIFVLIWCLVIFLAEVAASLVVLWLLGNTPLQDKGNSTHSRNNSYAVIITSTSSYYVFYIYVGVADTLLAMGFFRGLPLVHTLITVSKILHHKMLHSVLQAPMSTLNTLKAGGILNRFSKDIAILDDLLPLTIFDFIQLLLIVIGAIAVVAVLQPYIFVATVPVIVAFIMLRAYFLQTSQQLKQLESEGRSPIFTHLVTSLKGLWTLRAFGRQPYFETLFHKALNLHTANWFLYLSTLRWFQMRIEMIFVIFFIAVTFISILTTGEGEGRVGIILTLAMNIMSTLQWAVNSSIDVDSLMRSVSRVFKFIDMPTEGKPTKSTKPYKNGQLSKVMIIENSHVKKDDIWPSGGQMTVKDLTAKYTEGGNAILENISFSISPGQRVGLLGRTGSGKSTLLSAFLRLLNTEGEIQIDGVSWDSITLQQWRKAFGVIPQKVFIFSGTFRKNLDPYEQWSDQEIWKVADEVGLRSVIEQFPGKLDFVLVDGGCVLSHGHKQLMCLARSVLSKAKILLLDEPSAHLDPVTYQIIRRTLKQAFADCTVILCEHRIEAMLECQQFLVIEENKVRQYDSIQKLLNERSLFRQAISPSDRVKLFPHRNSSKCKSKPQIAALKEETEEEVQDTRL
Description: as §1, §2, §3

ΔF508-CFTR [2] = biological target: T1, ΔF508-CFTR; assay: Patch clamp, cell-attached patches, macroscopic current, NIH/3T3-ΔF508 cells; conditions: 200 μM CPT-cAMP after 10 μM forskolin
Description: FIGS. 3A and B show recordings of the potentiation of wild-type (wt) and ΔF508-CFTR channel activity by genistein. Channels in cell-attached patches from NIH/3T3-CFTR (FIG. 3A) and NIH/3T3-ΔF508cells (FIG. 3B), were stimulated as indicated with 10 μM forskolin and 50μ genestein.
Cell culture: NIH/3T3-CFTR, NIH/3T3-ΔF508, and NIH/3T3 mock cells (generous gifts from Dr. Richard Mulligan of Children's Hospital and Medical Center, Harvard Medical School) were grown as described [Bradbury et al., 1992] at 37° C. and 5% CO2 in Dulbecco's modified Eagle's medium-H21 supplemented with 10% new-born calf serum, 4 mM glutamine, 25 mM glucose, 100 μg/ml penicillin, 100 μg/ml streptomycin, and 50 μg/ml gentamicin. Cells were maintained in T75 flasks, passaged at 90-95% confluency, and split one to four. For measurements of I^- efflux and in vivo phosphorylation, cells were seeded onto 35-mm dishes at […]. For patch-clamp experiments, cells were grown on coverglass chips in 35-mm culture dishes. Media were replaced 24 hours after plating and thereafter every 48 hours. In all cases, media were changed on the day before I^- efflux studies, NIH/3T3-ΔF508 cells were transferred to 27° C. three days before use, and 1 day prior to study, media were supplemented with 5 mM butyrate. For patch-clamp studies, where a constant level of functional ΔF508-CFTR was not essential, NIH/3T3-ΔF508 cells were cultured at 27° C. for 2-6 days before use. Calu-3 cells were grown and maintained as described by Hunter [1995].
as §2, with “In excised inside-out patch experiments, the bath solution contained (in mM) 130 MNDG-Cl, 10 EGTA, 10 HEPES, 20 tetraethylammonium chloride, 8 Tris, and 2 MgCl2 (pH 7.4 with NMDG). Pipette potential was held at 50 mV relative to the bath. Downward deflections represent channel opening.” left out
Statistics: Mean currents and variance were estimated with Igor (Wavemetrics, Lake Oswego, Oreg.). […] Po was calculated from patches containing a single channel by dividing the open channel current amplitude with the mean-current amplitude. […] Calculated values are presented as means±SE. […]

ΔF508-CFTR [3] = biological target: T1, ΔF508-CFTR; assay: Other protein tyrosine kinase inhibitors, activation of ΔF508-CFTR; type: cell-based; parameters: expressed in transfected cells; host or cells: NIH/3T3 cells, stably transfected (NIH/3T3-ΔF508, gift of Dr. Richard Mulligan); conditions: for activation of ΔF508-CFTR: methodology of Example 1
CFTR = assay: Other protein tyrosine kinase inhibitors, enhancement of CFTR activity; type: cell-based; conditions: methodology of Example 1
Description: Based on the results of Example 1 other protein tyrosine kinase inhibitors were tested using the methodology of Example 1.

T1 sequence (P13569 with tags, fused parts or gaps DEL508-508): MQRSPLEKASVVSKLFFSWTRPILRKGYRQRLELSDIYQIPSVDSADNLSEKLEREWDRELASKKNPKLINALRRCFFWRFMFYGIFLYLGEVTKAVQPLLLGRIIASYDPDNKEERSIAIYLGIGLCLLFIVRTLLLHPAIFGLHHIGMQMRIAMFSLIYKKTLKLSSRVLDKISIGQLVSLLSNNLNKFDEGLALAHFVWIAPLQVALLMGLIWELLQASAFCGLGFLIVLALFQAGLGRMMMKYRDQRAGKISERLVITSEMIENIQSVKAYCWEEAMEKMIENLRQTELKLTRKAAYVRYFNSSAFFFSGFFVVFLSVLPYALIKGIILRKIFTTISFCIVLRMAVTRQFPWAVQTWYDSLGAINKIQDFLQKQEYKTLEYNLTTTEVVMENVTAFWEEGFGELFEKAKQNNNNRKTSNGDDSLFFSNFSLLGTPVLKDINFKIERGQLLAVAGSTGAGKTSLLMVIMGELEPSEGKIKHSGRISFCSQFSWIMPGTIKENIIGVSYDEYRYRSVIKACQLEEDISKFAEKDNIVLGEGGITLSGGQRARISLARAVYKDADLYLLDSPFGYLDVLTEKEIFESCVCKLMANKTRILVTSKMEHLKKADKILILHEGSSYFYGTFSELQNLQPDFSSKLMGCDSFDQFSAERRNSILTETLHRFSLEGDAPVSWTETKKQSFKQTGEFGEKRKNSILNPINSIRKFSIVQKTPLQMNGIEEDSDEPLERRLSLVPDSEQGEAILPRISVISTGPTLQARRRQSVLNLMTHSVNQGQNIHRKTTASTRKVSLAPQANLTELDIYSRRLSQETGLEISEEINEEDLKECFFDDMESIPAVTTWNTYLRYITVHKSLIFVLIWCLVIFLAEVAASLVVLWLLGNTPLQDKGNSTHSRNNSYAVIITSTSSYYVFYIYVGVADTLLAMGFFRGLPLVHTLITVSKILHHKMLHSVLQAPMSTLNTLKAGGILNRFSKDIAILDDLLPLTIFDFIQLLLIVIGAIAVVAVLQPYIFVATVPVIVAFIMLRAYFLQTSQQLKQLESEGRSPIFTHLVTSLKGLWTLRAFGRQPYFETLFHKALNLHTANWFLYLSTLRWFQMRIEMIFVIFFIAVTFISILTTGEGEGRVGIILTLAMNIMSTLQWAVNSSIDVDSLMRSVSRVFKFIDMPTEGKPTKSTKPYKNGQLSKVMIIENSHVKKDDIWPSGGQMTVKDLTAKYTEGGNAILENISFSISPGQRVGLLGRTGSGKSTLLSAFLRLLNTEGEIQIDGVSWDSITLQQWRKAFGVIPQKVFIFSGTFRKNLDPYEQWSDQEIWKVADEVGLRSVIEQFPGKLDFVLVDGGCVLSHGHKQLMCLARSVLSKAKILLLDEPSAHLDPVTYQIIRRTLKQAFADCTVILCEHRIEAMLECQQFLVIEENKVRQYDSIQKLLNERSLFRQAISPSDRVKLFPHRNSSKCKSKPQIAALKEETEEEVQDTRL

| activation of ΔF508-CFTR (ΔF508-CFTR [3]) | SMILES | also measured |
| --- | --- | --- |
| – | Nc1ncnc2c1ncn2[C@@H]1O[C@H](COP(=O)(O)OP(=O)(O)OP(=O)(O)O)[C@@H](O)[C@H]1O [ATP, reference compound] | channel open time (ΔF508-CFTR [1]): 302±2 milliseconds; channel open time (wt-CFTR): 302±2 milliseconds |
| – | Nc1ncnc2c1nc(Sc1ccc(Cl)cc1)n2[C@@H]1O[C@@H]2COP(=O)(O)O[C@H]2[C@H]1O [CPT-cAMP, 8-(4-chlorophenylthio)-cAMP, reference compound] | effect on mean-current amplitude of forskolin-stimulated cells (ΔF508-CFTR [2]): failed to increase the mean-current amplitude |
| failed to activate ΔF508-CFTR | CCOc1cc(C=C(C#N)C(N)=O)cc(CSc2ccccc2)c1O [ST638] | – |
| – | Nc1ccc(-c2cc(=O)c3cc(O)ccc3o2)cc1 [aminogenistein, 4'-amino-6-hydroxyflavone] | ΔF508-CFTR stimulation activity among protein tyrosine kinase inhibitors (ΔF508-CFTR [3]): is the only protein tyrosine kinase inhibitor that has such an effect |
| failed to activate ΔF508-CFTR | O=c1c(-c2ccc(O)cc2)coc2cc(O)ccc12 [daidzein] | – |
| failed to activate ΔF508-CFTR | COc1c(C=O)c(O)cc2c1C(=O)c1ccccc1C2=O [damnacanthal] | – |
| failed to activate ΔF508-CFTR | Cc1cc(O)c2c(c1)C(=O)c1cc(O)cc(O)c1C2=O [emodin] | – |
| failed to activate ΔF508-CFTR | O=C(O)c1cc(N(Cc2ccccc2O)Cc2cc(O)ccc2O)ccc1O [lavendustin A] | – |
| failed to activate ΔF508-CFTR | O=C(O)c1cc(N(Cc2ccccc2O)Cc2ccccc2O)ccc1O [lavendustin B] | – |
| failed to activate ΔF508-CFTR | COC(=O)c1cc(NCc2cc(O)ccc2O)ccc1O [lavendustin C methyl ester] | – |
| failed to activate ΔF508-CFTR | Oc1cc(O)cc(/C=C/c2ccc(O)c(O)c2)c1 [piceatannol] | – |
| – | O=c1c(O)c(-c2ccc(O)c(O)c2)oc2cc(O)cc(O)c12 [quercetin] | enhancement of CFTR activity (CFTR): failed to enhance CFTR activity |

| SMILES | activation of ΔF508-CFTR (ΔF508-CFTR [3]) | also measured |
| --- | --- | --- |
| CC(=O)OCOC(c1ccc2ccccc2c1)P(=O)(OCOC(C)=O)OCOC(C)=O (stereo not drawn) [HNMP-A (AM)^3] | failed to activate ΔF508-CFTR | – |
| Cc1ccc(-c2nn(C(C)(C)C)c3ncnc(N)c23)cc1 [PP1] | failed to activate ΔF508-CFTR | – |
| COC(=O)/C=C/c1cc(O)ccc1O [erbstatin analogue] | failed to activate ΔF508-CFTR | – |
| COC1=C2C[C@@H](C)C[C@H](OC)[C@H](O)[C@@H](C)/C=C(\C)[C@H](OC(N)=O)[C@@H](OC)/C=C\C=C(/C)C(=O)NC(=CC1=O)C2=O [geldanamycin] | failed to activate ΔF508-CFTR | – |
| COC1C=CC=C(C)C(=O)NC2=CC(=O)C=C(C2=O)C(OC)C(C)CC(OC)C(OC)C(C)C=C(C)C1OC(N)=O (stereo not drawn) [herbimycin A] | failed to activate ΔF508-CFTR | – |

From patent publication US5948814A, “Genistein for the treatment of cystic fibrosis” (priority 1998, dated 1999)
